Laboratory results: PubChem BioAssay (NCI)
Several values for one entry are separate records, joined by “and”; a condition that tells them apart may be missing. Equal values may be shown once.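 Interpolation was linear, between the two tested concentrations surrounding the appropriate level; five concentrations were tested over 48 hours in 96-well plates. At the GI50, growth is halved. The concentration for full growth arrest is given as TGI.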

What follows are compounds tested on SF-268 CNS (assay: inhibition of tumour cell growth, NCI panel, 48 h).

Row | SMILES | GI50 | TGI
1 | Nc1ccc([N+](=O)[O-])cc1N=C/C=C/c1ccccc1 | 5.91 µM | 40.6 µM
2 | COc1cc(-c2oc(=O)ccc2C#Cc2ccccn2)cc(OC)c1OC | 5.56 µM | > 100 µM
3 | COC(=O)C1c2cc3c(cc2C(OC2OC(C)C(OC)C(C)(OC)C2OC)CC1(C)O)C(=O)c1c(O)cc2c(c1C3=O)OC1OC2(C)C(O)C([N+](C)(C)[O-])C1O (configuration not stated) | – | > 21.4 µM
4 | CNCc1ccccc1-c1csc([C@@H](C)Nc2nc(C)nc3cc(OC)c(OC)cc23)c1 | 2.66 µM | 12.4 µM
5 | Nc1nc(Cl)cc(NCCCCCCCCNc2cc(Cl)nc(N)n2)n1 | – | > 100 µM
6 | CC(C)N(C(=O)C12C3C4C1C1C4(C#N)C3C12C#N)C(C)C (configuration not stated) | – | > 100 µM
7 | c1ccc2cc(-c3cc4ccccc4s3)ccc2c1 | – | > 100 µM
8 | CCOC(=O)C(C#N)C1=CC(=O)C(=O)c2ccc(OC)cc21 (configuration not stated) | – | > 100 µM
9 | CC(C)C(CCl)NC(=O)c1cccc(C(=O)N[C@H](CCl)C(C)C)n1 (stereo in doubt) | – | > 100 µM
10 | CCC(=O)CC(=O)CCC(=O)Nc1cc(C)ccc1C | – | > 100 µM
11 | CC[As](CC)SC[C@H](C)C(=O)N1CCC[C@H]1C(=O)O | 0.249 µM | 1 µM
12 | NC(N)=N/N=C/c1c(-c2ccsc2)nc2sccn12 | 15.3 µM | 29.4 µM
13 | O=c1/c(=C/c2ccccc2[N+](=O)[O-])sc2nnc(-c3ccco3)n12 | – | 46.3 µM
14 | CC(=O)CCn1ncc(Cl)c(Cl)c1=O | – | 28 µM
15 | C[N+](C)(C)CC1CCCc2ccccc2C1=O (configuration not stated) | – | 53.9 µM
16 | CN1CC(=O)N2Cc3ccccc3-n3cccc3C2C1 (configuration not stated) | – | > 100 µM
17 | NC(=S)N/N=C/C(=O)O | > 100 µM | > 100 µM
18 | Cc1ccc(SC2c3ccc(C)cc3Oc3nc(N)c(C#N)c(N)c32)cc1 (configuration not stated) | 1.83 µM | 4.06 µM
19 | Cc1cn2c(=O)c3ncn(C4OC(CO)C(O)C4O)c3n(C)c2n1 (configuration not stated) | – | > 100 µM

What follows are compounds tested on 786-0 renal (assay: inhibition of tumour cell growth, NCI panel, 48 h).

Row | SMILES | TGI | GI50
20 | Clc1ccc2c(c1)[nH]c1c2nc2ccccn21 | 37.5 µM and 33.1 µM | –
21 | CCOC(=O)c1cnc2c(ccc3[nH]n(C)nc32)c1=O | > 100 µM | –
22 | NC(=S)N/N=C(\CC1OC(=O)c2ccccc21)c1ccc(Cl)cc1 (configuration not stated) | > 100 µM | –
23 | COc1ccc2occ(CCC(=O)O)c2c1 | > 100 µM | –
24 | COC(=O)C(C(=O)c1ccccc1)C(C(=O)C(=O)Nc1ccc(OC)cc1OC)C(=O)C(=O)c1ccc(C)cc1 (configuration not stated) | > 100 µM | –
25 | CC1(C)COC(C2(C)C(=O)C=C(c3ccccc3)c3ccccc32)=N1 (configuration not stated) | > 100 µM | –
26 | O=C(Nc1ccn(CCO)c(=O)n1)c1ccccc1 | > 100 µM | –
27 | O=C1CCC2(c3ccc(Cl)cc3)Nc3ncccc3N12 (configuration not stated) | > 100 µM | –
28 | COc1ccc(Sc2[nH]c(C(C)=O)c3ccccc23)cc1 | 34.8 µM | 16.5 µM
29 | C#CCOc1cccc(-c2ncc3cc(NC(=O)CCl)ccc3n2)c1 | 3.59 µM | 2.01 µM
30 | CC12C/C(=C\c3ccccc3)C(=O)C3C1CCCC32 | > 100 µM | –
31 | OC(CC1SCCCS1)c1ccccc1 (configuration not stated) | > 100 µM | –
32 | CCCCOC(=O)CNC(=O)OC/C=C/C#CC#C/C=C/COC(=O)NCC(=O)OCCCC | > 100 µM | > 10 µM
33 | O=C1c2ccccc2C(=O)N1CCn1ccc(NC(c2ccccc2)(c2ccccc2)c2ccccc2)nc1=O | > 100 µM | –
34 | CC(C)(C)NNC(=O)CCn1[nH]c(=O)c(Cl)c(Cl)c1=O | > 100 µM | –
35 | O=CCC1CCCCC1 | > 100 µM | –
36 | CCC12CCCN(Cc3ccccc3)C1c1c(n(C)c3ccccc13)CC2 (configuration not stated) | > 253 µM | –
37 | CSc1nc(=O)n(CCC#N)nc1SC | 44.6 µM | –
38 | Nc1ccc([N+](=O)[O-])cc1N=C/C=C/c1ccccc1 | > 100 µM | 23.3 µM
39 | Cc1cc(Nc2ccc(NC(=O)c3ccc(Nc4ccnc5ccccc45)cc3)cc2)nc(N)n1 | > 100 µM | 3.06 µM
40 | COc1cc(-c2oc(=O)ccc2C#Cc2ccccn2)cc(OC)c1OC | > 100 µM | 4.47 µM
41 | CCN(CC)CCCN1CCc2c([nH]c3ccccc23)C1c1cccnc1 (configuration not stated) | > 100 µM | –
42 | COC(=O)C1c2cc3c(cc2C(OC2OC(C)C(OC)C(C)(OC)C2OC)CC1(C)O)C(=O)c1c(O)cc2c(c1C3=O)OC1OC2(C)C(O)C([N+](C)(C)[O-])C1O (configuration not stated) | > 40.5 µM | –
43 | CNCc1ccccc1-c1csc([C@@H](C)Nc2nc(C)nc3cc(OC)c(OC)cc23)c1 | 2.87 µM | 1.52 µM
